These results are taken from patent US9815788B2, “Anti-angiogenic compounds” (University College Dublin National University of Ireland, …, priority 2012, dated 2017).

What all share (format): cell-based, human
The test system of experiment [1] is OE33P radiosensitive oesophageal adenocarcinoma cells. Nature of the experiment: Quantification of oxidative phosphorylation (OCR, Seahorse), OE33P. The following applies: 10 μM, 24 hours. Here is the method: (§1) OE33P radiosensitive and OE33R radio-resistant oesophageal adenocarcinoma cells were used to test the effects of the compounds 11B HCl, 11B CC11 HCl, 11B CC16 HCl, 11B 471 and 11B 268 on oxidative phosphorylation. Cells were maintained in RPMI media supplemented with 10% foetal calf serum, penicillin (100 U/ml) and streptomycin (100 μg/ml). A total of 11,000-13,000 cells, in 100 μl media, were seeded per well in 24 well plates and left to incubate for 24 hours, with an additional 150 μl media added after 5 hours. The media was replaced with solutions containing 10 μM of 11B HCl, 11B CC11 HCl, 11B CC16 HCl, 11B 471, 11B 268 or fresh media as a control. Each drug had 6 replicates. After 24 hours of treatment, media was replaced with modified DMEM supplemented with 0.5 mM glucose. Rates of oxidative phosphorylation were determined using Seahorse Biosciences metabolism technology. The media was disposed and the cells washed with PBS. The cells were fixed with 1% glutaraldehyde for 15 minutes and then stained with crystal violet for 30 minutes. The plates were blotted and dried overnight. The cells were resuspended with 1% TritonX-100 and shaken for 15 minutes. The absorbance was read on a spectrophotometer at 595 nm. Rates of oxidative phosphorylation were then normalised to cell number.
(§2) OE33P radiosensitive and OE33R radioresistant oesophageal adenocarcinoma cells were used to test the effects of the compound 11B_Z_HCl on oxidative phosphorylation. Cells were maintained in RPMI media supplemented with 10%0/foetal calf serum, penicillin […]) and streptomycin (100 μg/ml). A total of 11,000 cells, in 100 μl media, were seeded per well in 24 well plates and left to incubate for 24 hours, with an additional 150 μl media added after 5 hours. The media was replaced with solutions containing 10 μM of 11B_Z_HCl or fresh media as a control. Each treatment had 6 replicates. After 24 hours of treatment, media was replaced with modified DMEM supplemented with 0.5 mM glucose. Rates of oxidative phosphorylation were determined using Seahorse Biosciences metabolism technology. Rates of oxidative phosphorylation were then normalised to cell number.

Experiment [2] concerns OE33R radio-resistant oesophageal adenocarcinoma cells. Nature of the experiment: Quantification of oxidative phosphorylation (OCR, Seahorse), OE33R. To be noted: 10 μM, 24 hours. Here is the method:
as §1
as §2, with “Rates of oxidative phosphorylation were then normalised to cell number.” left out

For experiment [3], the system named is OE33P radio-sensitive oesophageal adenocarcinoma cells. Nature of the experiment: Quantification of glycolysis (ECAR, Seahorse), OE33P. To be noted: 10 μM, 24 hours. Here is the method:
(§3) OE33P radio-sensitive and OE33R radio-resistant oesophageal adenocarcinoma cells were used to test the effects of compounds 11B HCl, 11B CC11 HCl, 11B CC16 HCl, 11B 471 and 11B 268 on glycolysis. Cells were maintained in RPMI media supplemented with 10% foetal calf serum, penicillin (100 U/ml) and streptomycin (100 μg/ml). A total of 11,000 or 13,000 cells, in 100 μl media, were seeded per well in 24 well plates and left to incubate for 24 hours, with an additional 150 μl media added after 5 hours. The media was replaced with solutions containing 10 μM of 11B HCl, 11B CC1 HCl, 11B CC16 HCl, 11B 471, 11B 268 or fresh media as a control. Each drug had 6 replicates. After 24 hours of treatment, media was replaced with modified DMEM supplemented with 0.5 mM glucose. Rates of glycolysis were determined using Seahorse Biosciences metabolism technology. The media was disposed and the cells washed with PBS. The cells were fixed with 1% glutaraldehyde for 15 minutes and then stained with crystal violet for 30 minutes. The plates were blotted and dried overnight. The cells were resuspended with 1% TritonX-100 and shaken for 15 minutes. The absorbance was read on a spectrophotometer at 590 nm. Rates of glycolysis were then normalised to cell number.
as §3, with “radiosensitive” for “radio-sensitive and OE33R radio-resistant”, “the compound 11B_ZHCl” for “compounds 11B HCl, 11B CC11 HCl, 11B CC16 HCl, 11B 471 and 11B 268”, “11,000” for “11,000 or 13,000”, “11B_ZHCl” for “11B HCl, 11B CC1 HCl, 11B CC16 HCl, 11B 471, 11B 268”, “treatment” for “drug”, “number. No changes in ECAR were detected in OE33R treated cells.” for “number.”

The subject of experiment [4] is OE33R radio-resistant oesophageal adenocarcinoma cells. Nature of the experiment: Cell number after 24 hours drug treatment (crystal violet absorbance), OE33R. To be noted: 10 μM. The procedure:
(§4) OE33P radio-sensitive and OE33R radio-resistant oesophageal adenocarcinoma cells were used to test the effects of the compounds 11B HCl, […], 11B CC16 HCl, 11B 471 and 11B 268 on cell number. Cells were maintained in RPMI media supplemented with 10% foetal calf serum, penicillin (100 U/ml) and streptomycin (100 gig/ml). A total of 11.000 or 13,000 cells, in 100 μl media, were seeded per well in 24 well plates and left to incubate for 24 hours, with an additional 150 μl media added after 5 hours. The media was replaced with solutions containing 10 μM of 11B HCl, 11B CC11 HCl, 11B CC16 HCl, 11B 471, 11B 268 or fresh media as a control. Each drug had 6 replicates. After 24 hours of treatment, the cells were fixed with 1% glutaraldehyde for 15 minutes and then stained with crystal violet for 30 minutes. The plates were blotted and dried overnight. The cells were resuspended with 1% TritonX-100 and shaken for 15 minutes. The absorbance was read on a spectrophotometer at 590 nm.
(§5) OE33P radiosensitive and OE33R radioresistant cells were used to test the effects of the compound 11B_Z_HCl on toxicity. Cells were maintained in RPMI media supplemented with 10% foetal calf serum, penicillin (100 U/ml) and streptomycin (100 μg/ml). A total of 11,000 cells, in 100 μl media, were seeded per well in 24 well plates and left to incubate for 24 hours, with an additional 150 μl media added after 5 hours. The media was replaced with solutions containing 10 μM of 11B_Z_HCl or fresh media as a control. Each treatment had 6 replicates. After 24 hours of treatment, the cells were fixed with 1% glutaraldehyde for 15 minutes and then stained with crystal violet for 30 minutes. The plates were blotted and dried overnight. The cells were resuspended with 1% TritonX-100 and shaken for 15 minutes. The absorbance was read on a spectrophotometer at 590 nm.

The test system of experiment [5] is OE33P radio-sensitive oesophageal adenocarcinoma cells. The experiment in a line: Cell number after 24 hours drug treatment (crystal violet absorbance), OE33P. To be noted: 10 μM. The procedure: as §4, §5

Molecules are shown by their SMILES. Structures can show the parent of a compound that is named as a salt.

Turning to `Oc1ccccc1/C=C/c1ccc2ccccc2n1` [11B HCl], the “oxygen consumption rate (OCR), a measure of oxidative phosphorylation” value (“oxygen consumption rate (OCR), a measure” for short) in experiment [1] and in experiment [2] was “significantly reduce” each time. For the same molecule, the “extracellular acidification rate (ECAR), a measure of glycolysis” value (shortened to “extracellular acidification rate (ECAR)”) in experiment [3] is reported as “significantly reduce”. Also, the “cell number, measured by % absorbance” value in experiment [4] and in experiment [5] was “did not significantly reduce cell number” in each case.
Regarding `C/C(=C\c1ccccc1O)c1ccc2ccccc2n1.Cl` [Compound 11B_CC11_HCl, (E)-2-(2-Quinolin-2-yl-propenyl)-phenol HCl salt], the “oxygen consumption rate (OCR), a measure” value in experiment [1] and in experiment [2] was “significantly reduce” throughout. The “extracellular acidification rate (ECAR)” value in experiment [3] is “significantly reduce”. The “cell number, measured by % absorbance” value in experiment [4] and in experiment [5] was “did not significantly reduce cell number” throughout.
Consider `Cl.Oc1ccccc1/C=C\c1ccc2ccccc2n1` [Compound 11B_Z_HCl, (Z)-2-(2-(Quinolin-2-yl)vinyl) phenol HCl salt], for which the “oxygen consumption rate (OCR), a measure” value in experiment [1] (HCl salt) and in experiment [2] (HCl salt) was “Significantly Reduces” throughout. Moreover, the “extracellular acidification rate (ECAR)” value in experiment [3] (HCl salt) is recorded as “significantly reduces”; in experiment [3] (listed as 11B_ZHCl, HCl salt), “Significantly Reduces”. The “cell number, measured by % absorbance” value in experiment [4] (HCl salt) and in experiment [5] (HCl salt) was “did not significantly reduce cell number” throughout.
